From patent US4288609A, “Quaternary ammonium derivatives of adamantane with antimicrobic activity” (priority 1976, dated 1981)

Tests used:
[1] = system: Candida Pseudotrop. ATCC 2512; test: MIC yeasts, Candida pseudotropicalis (Table 2); assay type: cell-based; details: Sabourand broth
Procedure: (§1) The method for evaluating the activity in vitro against bacteria, fungi and protozoa consists in introducing calculated quantities of the substance, the activity of which it is desired to test, into culture media already inoculated with a predetermined number of test germs.
(§2) After 24 or 48 hours of incubation at 30° or 37° C., according to the micro-organism being tested, it is possible to evaluate the growth of the same in the culture broth; in this manner the minimum concentration (M.I.C.) which inhibits the growth of the micro-organisms in vitro is determined.
(§3) Inoculation with Candida albicans or Candida pseudotropicalis was made by diluting cultures grown for 24 h at 30° C. (cellular density inoculated 10^3 /ml).
(§4) For the fungi Sabourand broth was used as a culture medium, whilst for the protozoa Kupferberg Trichomonas broth with 5% of horse serum was used.

[2] = system: Trych. Mentagr. 1st.Pastuer; test: MIC mildews, Trichophyton mentagrophytes (Table 2); assay type: cell-based; details: Sabourand broth
Procedure: as §1, §2
(§5) Inoculation with Trichophyton mentagrophytes and Microsporum canis was effected in a ratio of 1% of the volume of medium used.
as §4

Esch. Coli. SKF 12140 = test: M.I.C. in vitro, gram- Esch. Coli (Table 1); assay type: cell-based, Escherichia Coli
Procedure: as §1, §2
(§6) In table 1 there are recorded the M.I.C. values in γ/ml of the products subject of the present invention, against certain gram+ and gram- bacterial strains, some of which are pathogenic towards human beings.

[3] = system: Trich. Vaginalis ISM 66/22; test: MIC protozoa, Trichomonas vaginalis (Table 2); assay type: cell-based; details: +10% serum (head); Kupferberg Trichomonas broth with 5% of horse serum
Procedure: as §1, §2
(§7) Inoculation with Trichomonas vaginalis and Trichomonas foetus, obtained from cultures transplanted every other day to make them lively, was effected in a ratio of 3.5% of the volume of medium used.
as §4

Proteus Vulc. ATCC 881 = test: M.I.C. in vitro, gram- Proteus Vulc. (Table 1); assay type: cell-based
Procedure: as §1, §2, §6

Pseudom.Aer. ATCC 1014 = test: M.I.C. in vitro, gram- Pseudom. Aer. (Table 1); assay type: cell-based, Pseudomonas Aeruginosa
Procedure: as §1, §2, §6

Staph.Aureus Tour = test: M.I.C. in vitro, gram+ Staph. Aureus (Table 1); assay type: cell-based, Staphylococcus Aureus
Procedure: as §1, §2, §6

Klens. Pneum. ISM = test: M.I.C. in vitro, gram- Klens. Pneum. (Table 1); assay type: cell-based
Procedure: as §1, §2, §6

mice = test: Acute oral toxicity in mice (Table 4); details: oral, mice, 14 days; 20160 min
Procedure: The substances were administered orally to groups of 10 female mice CF1 of average weight of about 20 grams, in aqueous solution and in such way that the total volume administered would be in each case 1 ml/100 g of weight.

[4] = system: Streptococ. Henclyt. 0203; test: M.I.C. in vitro, gram+ Streptococ. Henclyt. (Table 1); assay type: cell-based
Procedure: as §1, §2, §6

Candida Albic. SKF 2270 = test: MIC yeasts, Candida albicans (Table 2); assay type: cell-based; details: Sabourand broth
Procedure: as §1, §2, §3, §4

Diplococcus Pneum. ISM = test: M.I.C. in vitro, gram+ Diplococcus Pneum. (Table 1); assay type: cell-based
Procedure: as §1, §2, §6

Trich. Foetus ISM 66/23 = test: MIC protozoa, Trichomonas foetus (Table 2); assay type: cell-based; details: +10% serum (head); Kupferberg Trichomonas broth with 5% of horse serum
Procedure: as §1, §2, §7, §4

[5] = system: Nicrosporum Canis ATCC 11621; test: MIC mildews, Microsporum canis (Table 2); assay type: cell-based; details: Sabourand broth
Procedure: as §1, §2, §5, §4

## CCCCCCCCCC[N+](CC)(CC)CCNC(=O)C12CC3CC(CC(C3)C1)C2 [Example 10, n-Decyl-diethyl-(1-adamantane-carbonylamido)-ethyl-ammonium chloride]
[1]; +10% serum
  MIC: 50 µg/mL
[1]; without serum
  MIC: 2 µg/mL
[2]; +10% serum
  MIC: 50 µg/mL
[2]; without serum
  MIC: 0.5 µg/mL
Esch. Coli. SKF 12140; +10% serum
  M.I.C.: 100 µg/mL
Esch. Coli. SKF 12140; without serum
  M.I.C.: 10 µg/mL
[3]
  MIC: 10 µg/mL
Proteus Vulc. ATCC 881; +10% serum
  M.I.C.: 100 µg/mL
Proteus Vulc. ATCC 881; without serum
  M.I.C.: 10 µg/mL
Pseudom.Aer. ATCC 1014; +10% serum
  M.I.C.: > 100 µg/mL
Pseudom.Aer. ATCC 1014; without serum
  M.I.C.: 50 µg/mL
Staph.Aureus Tour; +10% serum
  M.I.C.: 10 µg/mL
Staph.Aureus Tour; without serum
  M.I.C.: 0.2 µg/mL
Klens. Pneum. ISM; +10% serum
  M.I.C.: 100 µg/mL
Klens. Pneum. ISM; without serum
  M.I.C.: 10 µg/mL
mice
  LD50: 1050 mg/kg
[4]; +10% serum
  M.I.C.: 5 µg/mL
[4]; without serum
  M.I.C.: 0.5 µg/mL
Candida Albic. SKF 2270; +10% serum
  MIC: 50 µg/mL
Candida Albic. SKF 2270; without serum
  MIC: 0.5 µg/mL
Diplococcus Pneum. ISM; +10% serum
  M.I.C.: 10 µg/mL
Diplococcus Pneum. ISM; without serum
  M.I.C.: 2 µg/mL
Trich. Foetus ISM 66/23
  MIC: 5 µg/mL
[5]; +10% serum
  MIC: 50 µg/mL
[5]; without serum
  MIC: 0.5 µg/mL
